Measurements published in PubChem BioAssay (NCI).
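Method: 48-hour compound exposure of cells in 96-well plates, five concentrations, linear interpolation of endpoints. The concentration for full growth arrest is given as TGI.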

Experiments:
Experiment in all cases: NCI anticancer screen, dose series, 48 h
HOP-92 NSCLC = system: HOP-92 NSCLC
A549 NSCLC = system: A549 NSCLC
RPMI-8226 leukemia = system: RPMI-8226 leukemia
HCT-116 colon = system: HCT-116 colon
RXF 393 renal = system: RXF 393 renal
MALME-3M melanoma = system: MALME-3M melanoma
SK-OV-3 ovarian = system: SK-OV-3 ovarian
U251 CNS = system: U251 CNS
MDA-MB-435 = system: MDA-MB-435
SK-MEL-2 melanoma = system: SK-MEL-2 melanoma

| Compound | TGI (HOP-92 NSCLC) [µM] | TGI (A549 NSCLC) [µM] | TGI (RPMI-8226 leukemia) [µM] | TGI (HCT-116 colon) [µM] | TGI (RXF 393 renal) [µM] | TGI (MALME-3M melanoma) [µM] | TGI (SK-OV-3 ovarian) [µM] | TGI (U251 CNS) [µM] | TGI (MDA-MB-435) [µM] | TGI (SK-MEL-2 melanoma) [µM] |
| --- | --- | --- | --- | --- | --- | --- | --- | --- | --- | --- |
| O=c1ccc(=O)c2c1c1[nH]c3ccccc3c1c1c(=O)c3ccccc3c(=O)c21 | > 10 | > 10 | > 10 | > 10 | > 10 | > 10 | > 10 | > 10 | > 10 | > 10 |
| O=C(CCCCCCCCC(=O)N1C(=O)CC(=O)N(c2ccc(Cl)cc2)C1=S)N1C(=O)CC(=O)N(c2ccc(Cl)cc2)C1=S | > 100 | > 100 | > 100 | > 100 | > 100 | > 100 | > 100 | > 100 | > 100 | > 100 |
| FC(F)(Sc1ncccn1)c1nc2ccccc2o1 | > 100 | > 100 | > 100 | > 100 | > 100 | > 100 | > 100 | > 100 | > 100 | > 100 |
| CN(CC(=O)O)c1ncc2c(n1)-c1ccccc1CC2 | > 100 | > 100 | > 100 | > 100 | > 100 | > 100 | > 100 | > 100 | > 100 | > 100 |
| CCOC(=O)C(NC(=O)c1ccccc1)(Nc1ccc(S(=O)(=O)Nc2cc(C)on2)cc1)C(F)(F)F (stereo not given) | > 100 | > 100 | > 100 | > 100 | > 100 | > 100 | > 100 | > 100 | > 100 | > 100 |
| C/C(=C\C(=O)O)C(=O)N(C)c1ccccc1I | > 100 | > 100 | > 100 | > 100 | > 100 | > 100 | > 100 | > 100 | > 100 | > 100 |
| CCOC(=O)NC(Nc1ccc(C(=O)O)cc1)(C(F)(F)F)C(F)(F)F | > 100 | > 100 | > 100 | > 100 | > 100 | > 100 | > 100 | > 100 | > 100 | > 100 |
| CCOC(=O)/C=C(/OCC)[C@@H]1C(C(=O)c2ccc(Cl)cc2)[C@@H]1/C(=C\C(=O)OCC)OCC (stereo not given in full) | 17.9 | > 100 | > 23.1 | > 100 | > 78.5 | > 100 | > 100 | > 100 | > 83.8 | > 100 |
